Source: ChEMBL document CHEMBL4823305, “Design, synthesis and antibacterial evaluation of novel 3-O-substituted 15-membered azalides possessing 1,2,3-triazole side chains” (2021)
≈ marks a conversion by molar mass, not a printed value.

What was measured:
Format in all cases: functional
Staphylococcus aureus [1] = assay: Antibacterial activity against methicillin-resistant Staphylococcus aureus ATCC43300 by broth microdilution method
Klebsiella pneumoniae = assay: Antibacterial activity against Klebsiella pneumoniae ATCC10031 by broth microdilution method
Staphylococcus aureus [2] = assay: Antibacterial activity against erythromycin-susceptible Staphylococcus aureus ATCC25923 by broth microdilution method
Staphylococcus aureus [3] = assay: Antibacterial activity against penicillin-resistant Staphylococcus aureus by broth microdilution method
Enterococcus faecium = assay: Antibacterial activity against clinical isolate erythromycin-resistant Enterococcus faecium by broth microdilution method
Enterococcus faecalis = assay: Antibacterial activity against vancomycin-susceptible Enterococcus faecalis ATCC29212 by broth microdilution method
Bacillus subtilis = assay: Antibacterial activity against penicillin-susceptible Bacillus subtilis ATCC9372 by broth microdilution method

With CC[C@H]1OC(=O)[C@H](C)[C@@H](OC(=O)NNC(=O)Cn2cc(-c3cccc(Br)c3)nn2)[C@H](C)[C@@H](O[C@@H]2O[C@H](C)C[C@H](N(C)C)[C@H]2O)[C@](C)(O)C[C@@H](C)CN(C)[C@H](C)[C@H]2OC(=O)O[C@@]21C as the molecule, how does the MIC (Staphylococcus aureus [1]) read?
The MIC was 128 µg/mL (≈ 136 µM).

And the MIC (Klebsiella pneumoniae)?
The MIC was 32 µg/mL (≈ 34.1 µM).

And the MIC (Staphylococcus aureus [2])?
Its MIC is 64 µg/mL (≈ 68.2 µM).

And the MIC (Staphylococcus aureus [3])?
The MIC was 256 µg/mL (≈ 273 µM).

What about the MIC (Enterococcus faecium) of the same molecule?
The MIC was 128 µg/mL (≈ 136 µM).

And the MIC (Enterococcus faecalis)?
The MIC was 32 µg/mL (≈ 34.1 µM).

What about the MIC (Bacillus subtilis) of the same molecule?
Its MIC is 64 µg/mL (≈ 68.2 µM).

What does the source list for CC[C@H]1OC(=O)[C@H](C)[C@@H](O[C@H]2C[C@@](C)(OC)[C@@H](O)[C@H](C)O2)[C@H](C)[C@@H](O[C@@H]2O[C@H](C)C[C@H](N(C)C)[C@H]2O)[C@](C)(OC)C[C@@H](C)C(=O)[C@H](C)[C@@H](O)[C@]1(C)O [CLARITHROMYCIN]?
MIC (Staphylococcus aureus [1]): > 256 µg/mL; MIC (Klebsiella pneumoniae): 4 µg/mL (≈ 5.35 µM); MIC (Staphylococcus aureus [2]): < 0.25 µg/mL; MIC (Staphylococcus aureus [3]): > 256 µg/mL; MIC (Enterococcus faecium): 256 µg/mL (≈ 342 µM); MIC (Enterococcus faecalis): 1 µg/mL (≈ 1.34 µM); MIC (Bacillus subtilis): < 0.25 µg/mL

With CC[C@H]1OC(=O)[C@H](C)[C@@H](OC(=O)NNC(=O)Cn2cc(-c3cccc(C)c3)nn2)[C@H](C)[C@@H](O[C@@H]2O[C@H](C)C[C@H](N(C)C)[C@H]2O)[C@](C)(O)C[C@@H](C)CN(C)[C@H](C)[C@H]2OC(=O)O[C@@]21C as the molecule, how does the MIC (Staphylococcus aureus [1]) read?
Its MIC is 128 µg/mL (≈ 146 µM).

And the MIC (Klebsiella pneumoniae)?
Its MIC is 16 µg/mL (≈ 18.3 µM).

What about the MIC (Staphylococcus aureus [2]) of the same molecule?
Its MIC is 64 µg/mL (≈ 73.2 µM).

What about the MIC (Staphylococcus aureus [3]) of the same molecule?
Its MIC is 256 µg/mL (≈ 293 µM).

What about the MIC (Enterococcus faecium) of the same molecule?
The MIC was 128 µg/mL (≈ 146 µM).

And the MIC (Enterococcus faecalis)?
Its MIC is 32 µg/mL (≈ 36.6 µM).

And the MIC (Bacillus subtilis)?
Its MIC is 64 µg/mL (≈ 73.2 µM).

Which results are given for CC[C@H]1OC(=O)[C@H](C)[C@@H](OC(=O)NNC(=O)Cn2cc(-c3cccc(Cl)c3)nn2)[C@H](C)[C@@H](O[C@@H]2O[C@H](C)C[C@H](N(C)C)[C@H]2O)[C@](C)(O)C[C@@H](C)CN(C)[C@H](C)[C@H]2OC(=O)O[C@@]21C?
MIC (Staphylococcus aureus [1]): 128 µg/mL (≈ 143 µM); MIC (Klebsiella pneumoniae): 16 µg/mL (≈ 17.9 µM); MIC (Staphylococcus aureus [2]): 64 µg/mL (≈ 71.6 µM); MIC (Staphylococcus aureus [3]): 256 µg/mL (≈ 286 µM); MIC (Enterococcus faecium): 64 µg/mL (≈ 71.6 µM); MIC (Enterococcus faecalis): 16 µg/mL (≈ 17.9 µM); MIC (Bacillus subtilis): 64 µg/mL (≈ 71.6 µM)

CC[C@H]1OC(=O)[C@H](C)[C@@H](OC(=O)NNC(=O)Cn2cc(-c3cccc([N+](=O)[O-])c3)nn2)[C@H](C)[C@@H](O[C@@H]2O[C@H](C)C[C@H](N(C)C)[C@H]2O)[C@](C)(O)C[C@@H](C)CN(C)[C@H](C)[C@H]2OC(=O)O[C@@]21C was tested. Which MIC (Staphylococcus aureus [1]) did it give?
The MIC was 256 µg/mL (≈ 283 µM).

And the MIC (Klebsiella pneumoniae)?
The MIC was 32 µg/mL (≈ 35.4 µM).

What about the MIC (Staphylococcus aureus [2]) of the same molecule?
Its MIC is 64 µg/mL (≈ 70.7 µM).

And the MIC (Staphylococcus aureus [3])?
Its MIC is 256 µg/mL (≈ 283 µM).

What about the MIC (Enterococcus faecium) of the same molecule?
Its MIC is 128 µg/mL (≈ 141 µM).

And the MIC (Enterococcus faecalis)?
The MIC was 32 µg/mL (≈ 35.4 µM).

And the MIC (Bacillus subtilis)?
Its MIC is 128 µg/mL (≈ 141 µM).

CC[C@H]1OC(=O)[C@H](C)[C@@H](OC(=O)NNC(=O)Cn2cc(-c3ccc(F)cc3)nn2)[C@H](C)[C@@H](O[C@@H]2O[C@H](C)C[C@H](N(C)C)[C@H]2O)[C@](C)(O)C[C@@H](C)CN(C)[C@H](C)[C@H]2OC(=O)O[C@@]21C was tested. Which MIC (Staphylococcus aureus [1]) did it give?
Its MIC is 256 µg/mL (≈ 292 µM).

And the MIC (Klebsiella pneumoniae)?
Its MIC is 64 µg/mL (≈ 72.9 µM).

And the MIC (Staphylococcus aureus [2])?
The MIC was 64 µg/mL (≈ 72.9 µM).

And the MIC (Staphylococcus aureus [3])?
Its MIC is 128 µg/mL (≈ 146 µM).

What about the MIC (Enterococcus faecium) of the same molecule?
Its MIC is 128 µg/mL (≈ 146 µM).

And the MIC (Enterococcus faecalis)?
The MIC was 32 µg/mL (≈ 36.4 µM).

What about the MIC (Bacillus subtilis) of the same molecule?
The MIC was 64 µg/mL (≈ 72.9 µM).

Which MIC (Staphylococcus aureus [1]) does the source give for CCCc1ccc(-c2cn(CC(=O)NNC(=O)O[C@H]3[C@H](C)[C@@H](O[C@@H]4O[C@H](C)C[C@H](N(C)C)[C@H]4O)[C@](C)(O)C[C@@H](C)CN(C)[C@H](C)[C@H]4OC(=O)O[C@]4(C)[C@@H](CC)OC(=O)[C@@H]3C)nn2)cc1 here?
Its MIC is 64 µg/mL (≈ 70.9 µM).

What about the MIC (Klebsiella pneumoniae) of the same molecule?
The MIC was 16 µg/mL (≈ 17.7 µM).

And the MIC (Staphylococcus aureus [2])?
The MIC was 16 µg/mL (≈ 17.7 µM).

And the MIC (Staphylococcus aureus [3])?
The MIC was 64 µg/mL (≈ 70.9 µM).

What about the MIC (Enterococcus faecium) of the same molecule?
The MIC was 32 µg/mL (≈ 35.5 µM).

What about the MIC (Enterococcus faecalis) of the same molecule?
The MIC was 8 µg/mL (≈ 8.87 µM).

What about the MIC (Bacillus subtilis) of the same molecule?
Its MIC is 16 µg/mL (≈ 17.7 µM).

For CC[C@H]1OC(=O)[C@H](C)[C@@H](OC(=O)NNC(=O)Cn2cc(-c3ccccc3Cl)nn2)[C@H](C)[C@@H](O[C@@H]2O[C@H](C)C[C@H](N(C)C)[C@H]2O)[C@](C)(O)C[C@@H](C)CN(C)[C@H](C)[C@H]2OC(=O)O[C@@]21C, which MIC (Staphylococcus aureus [1]) is on record?
Its MIC is 128 µg/mL (≈ 143 µM).

What about the MIC (Klebsiella pneumoniae) of the same molecule?
The MIC was 32 µg/mL (≈ 35.8 µM).

What about the MIC (Staphylococcus aureus [2]) of the same molecule?
The MIC was 32 µg/mL (≈ 35.8 µM).

And the MIC (Staphylococcus aureus [3])?
The MIC was 256 µg/mL (≈ 286 µM).

What about the MIC (Enterococcus faecium) of the same molecule?
The MIC was 64 µg/mL (≈ 71.6 µM).

What about the MIC (Enterococcus faecalis) of the same molecule?
Its MIC is 64 µg/mL (≈ 71.6 µM).

And the MIC (Bacillus subtilis)?
Its MIC is 64 µg/mL (≈ 71.6 µM).

How did the MIC (Staphylococcus aureus [1]) turn out when CC[C@H]1OC(=O)[C@H](C)[C@@H](OC(=O)NNC(=O)Cn2cc(-c3ccc(C)cc3)nn2)[C@H](C)[C@@H](O[C@@H]2O[C@H](C)C[C@H](N(C)C)[C@H]2O)[C@](C)(O)C[C@@H](C)CN(C)[C@H](C)[C@H]2OC(=O)O[C@@]21C was run?
Its MIC is 256 µg/mL (≈ 293 µM).

And the MIC (Klebsiella pneumoniae)?
The MIC was 16 µg/mL (≈ 18.3 µM).

And the MIC (Staphylococcus aureus [2])?
The MIC was 32 µg/mL (≈ 36.6 µM).

And the MIC (Staphylococcus aureus [3])?
The MIC was 256 µg/mL (≈ 293 µM).

And the MIC (Enterococcus faecium)?
Its MIC is 64 µg/mL (≈ 73.2 µM).

What about the MIC (Enterococcus faecalis) of the same molecule?
The MIC was 32 µg/mL (≈ 36.6 µM).

And the MIC (Bacillus subtilis)?
The MIC was 64 µg/mL (≈ 73.2 µM).

Which MIC (Staphylococcus aureus [1]) does the source give for CCOc1ccc(-c2cn(CC(=O)NNC(=O)O[C@H]3[C@H](C)[C@@H](O[C@@H]4O[C@H](C)C[C@H](N(C)C)[C@H]4O)[C@](C)(O)C[C@@H](C)CN(C)[C@H](C)[C@H]4OC(=O)O[C@]4(C)[C@@H](CC)OC(=O)[C@@H]3C)nn2)cc1 here?
Its MIC is 128 µg/mL (≈ 142 µM).

And the MIC (Klebsiella pneumoniae)?
Its MIC is 32 µg/mL (≈ 35.4 µM).

What about the MIC (Staphylococcus aureus [2]) of the same molecule?
Its MIC is 32 µg/mL (≈ 35.4 µM).

What about the MIC (Staphylococcus aureus [3]) of the same molecule?
Its MIC is 128 µg/mL (≈ 142 µM).

What about the MIC (Enterococcus faecium) of the same molecule?
The MIC was 128 µg/mL (≈ 142 µM).

And the MIC (Enterococcus faecalis)?
The MIC was 16 µg/mL (≈ 17.7 µM).

What about the MIC (Bacillus subtilis) of the same molecule?
Its MIC is 64 µg/mL (≈ 70.8 µM).

How did the MIC (Staphylococcus aureus [1]) turn out when CC[C@H]1OC(=O)[C@H](C)[C@@H](OC(=O)NNC(=O)Cn2cc(-c3ccc(OC)cc3)nn2)[C@H](C)[C@@H](O[C@@H]2O[C@H](C)C[C@H](N(C)C)[C@H]2O)[C@](C)(O)C[C@@H](C)CN(C)[C@H](C)[C@H]2OC(=O)O[C@@]21C was run?
Its MIC is 256 µg/mL (≈ 288 µM).

What about the MIC (Klebsiella pneumoniae) of the same molecule?
The MIC was 32 µg/mL (≈ 36 µM).

What about the MIC (Staphylococcus aureus [2]) of the same molecule?
Its MIC is 64 µg/mL (≈ 71.9 µM).

And the MIC (Staphylococcus aureus [3])?
Its MIC is 256 µg/mL (≈ 288 µM).

And the MIC (Enterococcus faecium)?
The MIC was 128 µg/mL (≈ 144 µM).

And the MIC (Enterococcus faecalis)?
Its MIC is 64 µg/mL (≈ 71.9 µM).

What about the MIC (Bacillus subtilis) of the same molecule?
The MIC was 128 µg/mL (≈ 144 µM).
